Test systems include SW-620 colon; A498 renal; NCI-H522 lung; UACC-257 melanoma; OVCAR-5 ovarian; MDA-MB-435; SF-295 CNS; RXF 393 renal; IGROV1 ovarian; OVCAR-4 ovarian.
Assay in all cases: growth of human tumour cells (NCI), 48 h

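Step 1: Grow cells in 96-well plates. Step 2: Expose to compound for 48 hours at 5 concentrations. Step 3: Interpolate endpoints linearly; if unreached, use highest concentration. GI50 marks 50% less growth. At the TGI there is no net growth.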

Drawing on PubChem BioAssay (NCI), this text covers GI50 and TGI for ten molecules.

As to `COc1ccc(/C=C(\C(=O)NCc2cccnc2)S(=O)(=O)c2ccccc2)cc1OC`, the GI50 was 2950 nM with SW-620 colon; 2780 nM in the assay on A498 renal; 1700 nM in the assay on NCI-H522 lung; 3.03 µM in the assay with UACC-257 melanoma; 3.31 µM in the assay with OVCAR-5 ovarian; 2740 nM with MDA-MB-435. The results for the GI50 in the assay with SF-295 CNS, in the assay on RXF 393 renal and in the assay with IGROV1 ovarian were 2950 nM, 2080 nM and 2220 nM, respectively. Further, the TGI with SW-620 colon came to 10.9 µM; in the assay on A498 renal it was 8 µM; in the assay on NCI-H522 lung it was 4.61 µM; in the assay on UACC-257 melanoma, 13.9 µM; in the assay with OVCAR-5 ovarian it was 10.3 µM; in the assay on MDA-MB-435, 10.9 µM. In addition, the TGI in the assay with SF-295 CNS was 9.11 µM; in the assay on RXF 393 renal, 4.26 µM; with IGROV1 ovarian it was 11.3 µM.
Turning to `COC(=O)C1=C(C)NC(C)=C(C(=O)OCC(C)C)C1c1ccccc1[N+](=O)[O-]` (stereo not given), the GI50 was 3110 nM in the assay on SW-620 colon; 10700 nM in the assay on A498 renal; 2400 nM with NCI-H522 lung; 3.71 µM in the assay with UACC-257 melanoma; 2320 nM in the assay with OVCAR-4 ovarian; 7.52 µM with OVCAR-5 ovarian. Besides, the GI50 in the assay with MDA-MB-435 is 4250 nM; in the assay on RXF 393 renal, 2110 nM; in the assay on IGROV1 ovarian it was 5550 nM. Besides, the TGI was 11.4 µM in the assay on SW-620 colon; 23.7 µM in the assay on A498 renal; 10.7 µM in the assay on NCI-H522 lung; 12.5 µM in the assay on UACC-257 melanoma; 11.8 µM with OVCAR-4 ovarian; 22.5 µM with OVCAR-5 ovarian. Further, the TGI was 17.6 µM in the assay on MDA-MB-435, 8.31 µM in the assay with RXF 393 renal and 25.9 µM in the assay on IGROV1 ovarian.
Consider `N#Cc1nc2c(S(=O)(=O)c3ccc(Cl)cc3)c(N)n(CCCN3CCOCC3)c2nc1C#N`, for which the GI50 in the assay on SW-620 colon was 2990 nM; with A498 renal it was 2600 nM; in the assay with UACC-257 melanoma, 5.91 µM; in the assay with OVCAR-4 ovarian, 4780 nM; with OVCAR-5 ovarian it was 20.8 µM; with MDA-MB-435, 2210 nM. The GI50 is 17600 nM with SF-295 CNS and 1050 nM with RXF 393 renal. The TGI in the assay on SW-620 colon was 14.1 µM; in the assay with A498 renal it was 14.6 µM; with UACC-257 melanoma it was 22.7 µM; in the assay with OVCAR-4 ovarian it was above 100 µM; in the assay with OVCAR-5 ovarian it was 54.9 µM; in the assay on MDA-MB-435 it was 5.82 µM. Further, the TGI with SF-295 CNS was found to be 40.7 µM; in the assay on RXF 393 renal, 5.21 µM.
On to `CN(C)C(=O)c1cnc2oc3ccc(O)cc3c2c1-c1ccccc1`, for which the GI50 was above 25000 nM in the assay on SW-620 colon; above 25000 nM in the assay with NCI-H522 lung; above 25 µM with UACC-257 melanoma; 6.94 µM in the assay with OVCAR-5 ovarian; above 25000 nM in the assay on MDA-MB-435; above 25000 nM in the assay on SF-295 CNS. Further, the GI50 in the assay on RXF 393 renal and in the assay with IGROV1 ovarian was above 25000 nM throughout. In addition, the TGI in the assay with SW-620 colon, in the assay with NCI-H522 lung, with UACC-257 melanoma, in the assay on OVCAR-5 ovarian, with MDA-MB-435 and in the assay with SF-295 CNS was above 25 µM throughout. Also, the TGI in the assay with RXF 393 renal and with IGROV1 ovarian was above 25 µM in each case.
For `Cc1[nH]c2ccc(F)cc2c1-c1nc2c3cccnc3c3ncccc3c2[nH]1`, the GI50 in the assay with SW-620 colon was 374 nM; with A498 renal it was 944 nM; in the assay on OVCAR-4 ovarian it was 96.6 nM; in the assay with OVCAR-5 ovarian, 0.397 µM; in the assay on MDA-MB-435 it was 426 nM; in the assay on SF-295 CNS, 428 nM. Also, the results for the GI50 in the assay with RXF 393 renal and in the assay with IGROV1 ovarian were 354 nM and 374 nM, respectively. Moreover, the TGI in the assay with SW-620 colon, in the assay with A498 renal, with OVCAR-4 ovarian, with OVCAR-5 ovarian, in the assay on MDA-MB-435 and in the assay on SF-295 CNS was above 100 µM throughout. The TGI in the assay on RXF 393 renal and with IGROV1 ovarian was above 100 µM throughout.
On to `COc1ccc(C(=O)/C=C/c2cccc(Nc3ccnc4cc(Cl)ccc34)c2)cc1`, for which the GI50 was 1980 nM in the assay on SW-620 colon; 3000 nM with A498 renal; 1880 nM in the assay on NCI-H522 lung; 2.6 µM in the assay on OVCAR-5 ovarian; 2130 nM with MDA-MB-435; 694 nM with SF-295 CNS. Also, the GI50 is 1820 nM in the assay with RXF 393 renal and 1440 nM with IGROV1 ovarian. In addition, the TGI in the assay with SW-620 colon is 20 µM; in the assay with A498 renal it was 55.3 µM; in the assay on NCI-H522 lung, above 100 µM; with OVCAR-5 ovarian, above 100 µM; in the assay with MDA-MB-435, above 100 µM; with SF-295 CNS it was 16.3 µM. Moreover, the TGI in the assay with RXF 393 renal is 5.17 µM; with IGROV1 ovarian it was 6.53 µM.
Regarding `CCOC(=O)C1CCCCN1C(=O)c1ccc(Nc2cnc3cc(C(F)(F)F)ccc3n2)cc1` (stereo not given), the GI50 was 17800 nM in the assay with SW-620 colon; 10300 nM in the assay with A498 renal; 30400 nM with NCI-H522 lung; 15.7 µM in the assay on UACC-257 melanoma; 10.3 µM in the assay on OVCAR-5 ovarian; 14700 nM in the assay with MDA-MB-435. Also, the GI50 is 3310 nM with SF-295 CNS, 3230 nM in the assay with RXF 393 renal and 19300 nM in the assay on IGROV1 ovarian. The TGI in the assay on SW-620 colon was 38.5 µM; in the assay on A498 renal, 22.9 µM; in the assay with NCI-H522 lung it was above 100 µM; with UACC-257 melanoma it was 29.8 µM; in the assay with OVCAR-5 ovarian it was 23 µM; with MDA-MB-435 it was 28.3 µM. For the same molecule, the results for the TGI in the assay on SF-295 CNS, with RXF 393 renal and in the assay on IGROV1 ovarian were 9.24 µM, 8.45 µM and 40.8 µM, respectively.
For `CC1=C(C(=O)N(C)c2ccc(Cl)c(C(=O)OC(C)C)c2)SCCO1`, the TGI with SW-620 colon, in the assay on A498 renal, with NCI-H522 lung, with UACC-257 melanoma, with OVCAR-4 ovarian and with OVCAR-5 ovarian was above 100 µM each time. The TGI with MDA-MB-435, in the assay on SF-295 CNS and in the assay on IGROV1 ovarian was above 100 µM throughout.
Regarding `O=[N+]([O-])c1cc(Cl)cnc1Br`, the TGI with SW-620 colon is 12.7 µM; in the assay on A498 renal, 32 µM; with UACC-257 melanoma, 22.6 µM; in the assay with OVCAR-4 ovarian, 3.82 µM; with OVCAR-5 ovarian, 9.48 µM; in the assay on MDA-MB-435, 5.4 µM. The TGI with SF-295 CNS is 10.6 µM; in the assay with RXF 393 renal, 3.12 µM; with IGROV1 ovarian, 8.32 µM.
As for `O=C(N/C(=C\c1ccc(/C=C(\NC(=O)c2ccccc2)c2nc3ccccc3[nH]2)cc1)c1nc2ccccc2[nH]1)c1ccccc1`, the TGI in the assay with SW-620 colon, in the assay with A498 renal, with NCI-H522 lung, in the assay with UACC-257 melanoma, in the assay on OVCAR-4 ovarian and in the assay on OVCAR-5 ovarian was above 100 µM in each case. The TGI with SF-295 CNS, with RXF 393 renal and in the assay on IGROV1 ovarian was above 100 µM each time.
